{"source": "patent US9801831B2", "about": "“Device for controlled release of a bioactive agent” (Nanyang Technological University, priority 2010, dated 2017)", "assay": "Solubility limit of paclitaxel in release buffer", "assay_type": "physicochemical", "details": "PBS/2% Tween-80 release buffer, pH 7.4, aqueous with cosolvent or surfactant or cyclodextrin", "experimental": "The in-vitro release of paclitaxel was conducted in 2 mL of PBS/% Tween 80 release buffer (pH 7.4) at 37° C. using 6 mm punch-outs (1 punch-out/well) in triplicate. At predetermined time-points 2 mL of buffer was removed and another 2 mL replaced with PBS/Tween 80 release buffer, maintaining sink conditions throughout the release. Withdrawn aliquots (or standards/dissolutions samples) were filtered through a 0.2 μm PTFE syringe filter directly into HPLC vials and immediately capped. Paclitaxel was quantified with an Agilent Series 1100 HPLC (Santa Clara, Calif., USA) equipped with UV/Vis detector, autosampler, and column heater set to 35° C. A ZORBAX Eclipse XDB-C18 (5 μm) column of acetonitrile/water 60/40 (v/v) served as the mobile buffer, eluting the paclitaxel peak at ˜5.4 minutes with a flow rate 1.0 mL/min and the UV/Vis detector recording at 227 nm. A total dissolution study of the 6 mm discs in triplicate was conducted by dissolving the films in acetone and diluting in release buffer to determine the surface concentration of paclitaxel (μg/mm^2)."}
{"smiles": "CC(=O)O[C@H]1C(=O)[C@@]2(C)[C@H]([C@H](OC(=O)c3ccccc3)[C@]3(O)C[C@H](OC(=O)[C@H](O)[C@@H](NC(=O)c4ccccc4)c4ccccc4)C(C)=C1C3(C)C)[C@]1(OC(C)=O)CO[C@@H]1C[C@@H]2O", "note": "[paclitaxel]", "values": [{"measurement": "solubility", "result": 20, "unit": "µg/mL"}]}
